Source: patent US10869858B2, “Therapeutic agent for amyotrophic disorders” (TOHOKU UNIVERSITY, priority 2015, dated 2020)

Tests used:
[1] = system: ALS patient-derived fibroblasts; test: Degree of cell damage of ALS patient-derived fibroblasts treated with BSO 500 μmol/L, Method 2, LDH Cytotoxicity Detection Kit; type: cell-based; conditions: 500 μmol/L BSO; compound at 0.1, 0.3, 1, 3 and 10 μmol/L; three days with compound; FIG. 2
Method: (§1) ALS patient-derived fibroblasts can be used to confirm the inhibitory effect of the compound of the present invention on cell death induced by treating the ALS patient-derived fibroblasts with the glutathione synthesis inhibitor, L-buthionine(S, R)sulfoximine (BSO).
(§2) 3.0×10^3 Cells per well of ALS patient-derived fibroblasts were seeded in a 96-well cell culture plate using a DMEM (low glucose) medium containing 1% FBS. One day after cell seeding, BSO was mixed in the culture medium so that the concentration thereof is 500 μmol/L. After culturing in the presence of BSO for one day, the compound of Example 1 was mixed in the culture medium so that the concentration thereof is 0.1, 0.3, 1, 3 or 10 μmol/L. After culturing in the presence of the compound for another three days, the number of living cells in each well was counted by using Cell Counting Kit-8 (manufactured by Dojindo Laboratories) to calculate cell viability. In addition, the degree of cell damage was measured by using LDH Cytotoxicity Detection Kit (manufactured by Takara Bio Inc.). Here, wells to which both BSO and the compound were not added but distilled water and DMSO that were solvents for BSO and the compound, respectively were added were used as a control of the oxidative stress loading; wells to which both BSO and the compound were added were used as a control for the effect of the test compound.

[2] = system: ALS patient-derived fibroblasts; test: Cell viability of ALS patient-derived fibroblasts treated with BSO 500 μmol/L, Method 2, Cell Counting Kit-8; type: cell-based; conditions: 500 μmol/L BSO; compound at 0.1, 0.3, 1, 3 and 10 μmol/L; three days with compound; FIG. 2
Method: as §1, §2

[3] = system: ALS patient-derived fibroblasts; test: Inhibitory effect on cell death of ALS patient-derived fibroblasts induced by oxidative stress (BSO 100 μmol/L), Method 1, Cell Counting Kit-8; type: cell-based; conditions: 100 μmol/L BSO; compound at 10 and 30 μmol/L; two days with compound; FIG. 1
Method: as §1
6.4×10^3 Cells per well of ALS patient-derived fibroblasts were seeded in a 96-well cell culture plate using a DMEM medium containing 1% FBS. One day after cell seeding, BSO was mixed in the culture medium so that the concentration thereof was 100 μmol/L. After culturing in the presence of BSO for one day, the compound of Example 1 was mixed in the culture medium so that the concentration thereof is 1, 3, 10 or 30 μmol/L. After culturing in the presence of the compound for another two days, the number of living cells in each well was counted by using Cell Counting Kit-8 (manufactured by Dojindo Laboratories) to calculate cell viability. Here, wells to which both BSO and the compound were not added but distilled water and DMSO that were solvents for BSO and the compound, respectively were added were used as a control of the oxidative stress loading; wells to which both BSO and the compound were added were used as a control for the effect of the test compound.

wobbler mice = test: Rotarod test in ALS animal models (wobbler mice); type: in vivo; conditions: 150 mg/kg orally once a day, 16 days after administration start, 10 rpm, n=14; control group 43%; P=0.018
Method: To 4-week-old wobbler mice, the compound of Example 1 (150 mg/kg) or a solvent, a 0.5% aqueous solution of methyl cellulose as a control was orally administered at a rate of 10 mL/kg once a day. Sixteen days after administration start date, the animals were placed on a mouse rotarod (manufactured by Muromachi Kikai Co., Ltd.) set at a rotation speed of 10 rpm and the time to fall was measured (rotarod test). The rotarod walking time was measured three times, and the upper limit of one measurement time was 300 seconds.

O=C(CC(C(=O)O)c1c[nH]c2ccccc12)c1ccc(F)cc1F (stereo not shown) [Example 1, 4-(2,4-difluorophenyl)-2-(1H-indol-3-yl)-4-oxobutanoic acid]
prevention of cytotoxicity (degree of cell damage, LDH) induced by BSO [1]: statistically significantly prevented | prevention of low cell viability induced by BSO [2]: statistically significantly prevented the low cell viability | inhibition of cell death induced by BSO (cell viability) [3]: statistically significantly inhibited cell death | occurrence ratio of animals whose rotarod walking time exceeded 300 seconds (wobbler mice): 86%
